According to patent US20230028463A1, “METHOD FOR PRODUCING ACTINIC RAY-SENSITIVE OR RADIATION-SENSITIVE RESIN COMPOSITION, PATTERN FORMATION METHOD, AND METHOD FOR MANUFACTURING ELECTRONIC DEVICE” (FUJIFILM Corporation, priority 2020, published 2023):

Experiment: Solubility of photoacid generator in 100 g of solvent at 25° C.
Type: physicochemical
Details: in 100 g of PGME at 25° C.
Description: <Solubility (g) of Photoacid Generator in 100 g of Solvent at 25° C.>
“A”: The solubility is more than 3 g
“B”: The solubility is 0.5 to 3 g
“C”: The solubility is less than 0.5 g

Question: Which “Solubility (25° C.) of photoacid generator in solvent” value does the source give for `c1ccc([S+]2CCCC2)cc1` [B-4] here?
Answer: A (The solubility is more than 3 g)
